Paper PMC6911004, “Fragment-based screening identifies molecules targeting the substrate-binding ankyrin repeat domains of tankyrase” (Scientific Reports, 2019)

Assays:
[1] = biological target: T1, TNKS2 ARC5 (Homo sapiens, UniProt Q9H2K2); assay: WaterLOGSY NMR assay; type: binding
T1 construct: followed by TNKS2 ARC5 (1 μL, 100 μM stock); His6-GST; made in house; host or cells: E. coli
Text: 39 hits from the DSF screen were suitable for follow-up by ligand-observed NMR methods. We re-purchased fragments and performed T2 relaxation-edited (CPMG-edited) and waterLOGSY experiments for each fragment with TNKS2 ARC5. We explored saturation transfer difference (STD) NMR, also using TNKS2 ARC5, but the assay was not sensitive enough to produce a reliable binding signal, likely due to the relatively small size of a single ARC protein (data not shown). High ligand concentrations were required to achieve sufficient signal, which in turn could lead to false-positive hits due to non-specific binding.
Using the relaxation-edited assay, we tested each fragment in three independent measurements (Fig. 2C), unless we obtained two negative results (non-binding) in the first two experiments. […] As a negative NOE for the compound-only sample could indicate aggregation, we flagged these compounds as potentially problematic. We identified 14 fragments that bound to TNKS2 ARC5 by both relaxation-edited and waterLOGSY methods (0.78% hit rate). […]
Fragments were dispensed in duplicate into a 384-well plate (250 nL, 100 mM stock in DMSO). […] Solutions were transferred to 1.7 mm NMR tubes using a Gilson liquid handling system. ^1H NMR spectra were recorded, with the DMSO signal dampened. […]

[2] = biological target: T1, TNKS2 ARC5; assay: Differential scanning fluorimetry (DSF, thermal shift); type: binding; conditions: fragment 500 μM, 5% DMSO
Method: Therefore, we chose TNKS2 ARC5 for screening by DSF, anticipating the largest signal window for measuring changes in Tm upon fragment binding.
We screened 1869 compounds in duplicate at a concentration of 500 μM, which we considered a reasonable compromise between having a sufficiently high concentration to identify weak binders while minimising the likelihood of false positives through fragment precipitation/aggregation and non-specific binding. The final DMSO concentration was 5%. We calculated melting temperatures using both the inflection point and the maximum peak of first derivative data methods. Both methods generally agreed, unless the melt curve was biphasic or misshapen, with slightly lower variability for the […] Tm determination method (see Materials and Methods for experimental and analysis details).
We determined the melting temperature for the unbound ARC (Tm, 0) from the mean of 12 reference melting curves per plate, with 5% DMSO only. We calculated the change in melting temperature (ΔTm) by subtracting the mean Tm, 0 from Tm, compound. We tested compounds in duplicate, defining fragments as hits if they conferred a ΔTm outside two standard deviations (2σ) from the mean, in one or both replicates. To check for consistency between plates, we ran triplicate peptide controls; however, we excluded peptide ΔTm values from the calculation of the mean ΔTm to avoid skewing the results. We observed mean ΔTm values (IP/1st derivative methods) of −0.127/−0.331 °C and σ as 0.997/1.19 °C. A hit cut-off of 2σ gave absolute shifts of +1.87/+2.05 °C for compounds that stabilised and −2.13/−2.71 °C for compounds that destabilised the ARC (Fig. 2B).
For the screen, a C1000 thermal cycler (Bio-Rad) was used to record melt curves. SYPRO Orange was purchased as a 5000 × stock in DMSO from Sigma Aldrich. The ICR fragment library was available as 100 mM stocks in DMSO, and dispensed (25 nL) using an ECHO acoustic liquid handling system into white 384-well PCR plates (Framestar, 4titude). Wells were backfilled with DMSO (225 nL). Buffer (2.75 μL, 25 mM HEPES-NaOH pH 7.5, 100 mM NaCl, 2 mM TCEP) was added, followed by TNKS2 ARC5 (1 μL, 100 μM stock) and then SYPRO orange dye (1 μL, 25×). The plate was centrifuged after the addition of each reagent (1 min, 1000 × g). Final assay concentrations were as follows: TNKS2 ARC5 (20 μM); fragment (500 μM); SYPRO Orange dye (5×); DMSO (5% v/v) in a total volume of 5 μL. Peptide control wells (3BP2 TBM 16-mer, 200 μM, sequence LPHLQRSPPDGQSFRSW with C-terminal tryptophan added for photometric concentration measurements, the N-terminus acetylated and the C-terminus amide-capped) were plated in triplicate, and there were 12 blank wells per plate, with DMSO only (250 nL, 5% v/v). Melt curves were recorded from 20–95 °C, with the temperature ramped by 0.5 °C every 15 s. Data were analysed using Vortex (Dotmatics) software and melting temperatures calculated from both the inflection point and the maximum peak of 1st-derivative data. Data points were excluded if the melt curve was poor, i.e., if there was no fluorescence signal above baseline, high fluorescence intensity throughout, or if the melt curve was shallow (<1000 rfu difference between baseline and peak maximum). The unbound melting temperature was determined from the mean of 12 reference melting curves, with 5% DMSO only. The change in melting temperature (ΔTm) was calculated by subtracting the mean Tm, 0 from Tm, compound. Compounds were tested in duplicate, and fragments were defined as hits if they gave a ΔTm outwith 2 σ from the mean in one or both replicates.
For the experiment shown in Fig. 2A, ARC and 3BP2 TBM peptide concentrations were 20 and 200 μM, respectively, in 50 mM HEPES-NaOH pH 7.5, 100 mM NaCl, 2 mM TCEP and a total volume of 25 μL. SYPRO Orange was added at 5×. Data were recorded from 4–95 °C, with the temperature ramped by 0.5 °C every 15 s, using a CFX384 thermal cycler (Bio-Rad). […]

T1 sequence (Q9H2K2 641-800): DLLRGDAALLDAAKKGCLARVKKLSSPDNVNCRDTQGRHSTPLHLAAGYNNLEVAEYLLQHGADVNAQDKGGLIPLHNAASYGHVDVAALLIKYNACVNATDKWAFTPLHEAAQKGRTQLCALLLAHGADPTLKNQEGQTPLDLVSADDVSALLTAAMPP

For `O=C(NCc1ccco1)c1ccc2nccnc2c1` [compound 9], the waterLOGSY [1] was “negative NOE signal”.

`O=C(NCc1ccc(F)cc1)c1ccc2nccnc2c1` [compound 5] was tested, and the “ΔTm calculated by the inflection point method” value ([2]; screen, biphasic melt curves) was 1.6 °C and the “ΔTm calculated by the 1st derivative method” value ([2]; screen, second peak used to calculate Tm) was 8.1 °C.

For `O=C(NCc1ccco1)c1ccc(F)cc1` [compound 3], the “ΔTm (°C)” value ([2]; method of Tm analysis not stated) was 2.5 °C.
